The source made the active and inactive calls.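 How the source made its calls: active means maximal percent inhibition of the deubiquitinase OTUD3 of at least 30% across the tested doses; inactive means the rest.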
Molecular target: OTU domain-containing protein 3 (Homo sapiens) (UniProt Q5T2D3)
Experiment: Validation of screening hits, potency titration, in vitro enzymatic, OTU domain-containing protein 3 DUB inhibitors (AID 1645868)
Settings: purified OTUD3, ubiquitin-rhodamine cleavage fluorescence, 2 h

Chain of OTU domain-containing protein 3 (Homo sapiens) (Q5T2D3 whole entry, looked up, the tested form may be a part): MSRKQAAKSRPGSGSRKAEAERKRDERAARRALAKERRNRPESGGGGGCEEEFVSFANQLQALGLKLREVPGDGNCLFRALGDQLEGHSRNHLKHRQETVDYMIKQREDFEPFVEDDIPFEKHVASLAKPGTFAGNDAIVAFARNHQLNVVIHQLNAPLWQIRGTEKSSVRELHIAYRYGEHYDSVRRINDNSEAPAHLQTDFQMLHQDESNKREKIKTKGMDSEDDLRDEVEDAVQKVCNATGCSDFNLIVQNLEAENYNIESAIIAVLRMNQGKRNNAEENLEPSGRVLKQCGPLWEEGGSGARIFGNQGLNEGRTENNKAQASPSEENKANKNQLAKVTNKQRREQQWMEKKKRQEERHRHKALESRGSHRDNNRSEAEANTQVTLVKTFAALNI

Structure (SMILES)	IC50
Cc1ccc(Cn2nnc(-c3noc(-c4ccc[nH]4)n3)c2C)cc1	> 50 µM (inactive)
COc1cccc(-c2cc(C(=O)N3CCN(c4ccc(N5CCOCC5)nn4)CC3)[nH]n2)c1	> 50 µM (inactive)
Cn1c(=O)c2c(nc3n(-c4ccccc4F)c(-c4ccccc4)cn23)n(C)c1=O	> 50 µM (inactive)
COc1ccccc1-c1nc2c3c(ncn2n1)Oc1c(c(C)nn1-c1ccccc1)C3c1cccnc1 (stereo not given)	> 50 µM (inactive)
Cc1cc(C#N)c2c(C)ccc(C(C)C)cc1-2	> 50 µM (inactive)
COC1C(O)=C2C(=O)O/C(C)=C/C=C/C=C/C=C/CC(c3ccccc3)NC(=O)/C=C/C=C/C=C\C=C\C2(C)C1O (stereo not given)	> 50 µM (inactive)
CCCn1cc(C(=O)N2CCC3(CC2)CC2(CO3)Nc3ccccc3-n3cccc32)c(C)n1 (stereo not given)	> 50 µM (inactive)
O=C1c2ccccc2NC2(C(=O)Nc3ccc(Br)cc32)N1c1ccccc1 (stereo not given)	> 50 µM (inactive)
CC(=O)CN1CC2(CCN(Cc3ccc(F)cc3)CC2)COc2ccccc2S1(=O)=O	> 50 µM (inactive)
CNC(=O)c1cc2nc(N(C)C)n(-c3ccccc3)c2s1	> 50 µM (inactive)
O=C(NCc1ccco1)c1ccc2c(c1)N(Cc1cccc(F)c1)C(=O)c1ccccc1S2	> 50 µM (inactive)
Cc1ccc2oc(=O)c(S(=O)(=O)N3CCCCC3)cc2c1	43.1 µM
COCCNC(=O)c1ccn(-c2ccc3ccc(-c4ccncc4)cn23)n1	> 50 µM (inactive)
O=C(CCCn1c(=O)c2ccccc2n(CC(=O)NCc2ccccc2Cl)c1=O)NCc1ccc2c(c1)OCO2	3.31 µM
Cn1nccc1C(=O)N1CCCCC1c1ncc(Cc2ccc(Cl)cc2)o1 (stereo not given)	> 50 µM (inactive)
CC(C)N1CC2CN(Cc3ccc(Cl)cc3)CCN2Cc2ccccc21 (stereo not given)	> 50 µM (inactive)
CCn1c(SCC(=O)N2c3ccccc3CC2C)nnc1-c1ccc2c(c1)OCCO2 (stereo not given)	> 50 µM (inactive)
COc1ccc(Nc2nc3c(S(=O)(=O)c4ccc(C)cc4)nnn3c3ccsc23)c(OC)c1	40.1 µM
O=C(CCC1CCCCC1)Nc1ccccc1C(=O)N1CCOCC1	> 50 µM (inactive)
Cc1cccc(C(=O)NCc2nc3ccccc3n2Cc2ccccc2C)c1	> 50 µM (inactive)
CC(C)CCCCCCCCCCC(=O)N(C)[C@H](CO)C(=O)N[C@H](C)C(=O)NCC(=O)N(C)C1C(=O)N[C@@H](C)C(=O)NC(C(=O)O)Cc2ccc(O)c(c2)-c2cc1ccc2O (stereo not given in full)	> 50 µM (inactive)
COc1ccc(C(C(=O)NCc2ccccc2)N(C(=O)CCN2CCc3ccccc32)c2ccc(C)c(C)c2)cc1 (stereo not given)	> 50 µM (inactive)
CCOc1ccccc1NC(=O)COC(=O)C(c1ccccc1)c1ccccc1	> 50 µM (inactive)
Cc1nc(C(=O)N[C@@H](C)C(=O)NCc2ccc3c(c2)OCO3)cc2c1[nH]c1ccccc12	37.8 µM

Structure (SMILES)	IC50
Cc1c(C)n(-c2ccccc2)c2ncn(CC(=O)NC(C)c3ccccc3)c(=O)c12 (stereo not given)	21 µM
O=C(Nc1cc(F)c2nc(N3CCOCC3)ccc2c1)c1ccc(Br)o1	> 50 µM (inactive)
CCCc1nc2sc3c(NCCN4CCOCC4)ncnc3c2c2c1CCC2	> 50 µM (inactive)
CCOC(=O)c1ccc(-n2c(=O)c(C#N)cc3c(=O)n4ccccc4nc32)cc1	> 50 µM (inactive)
O=C(c1ccc(COc2cccc3ccccc23)o1)N1CCC(Cc2ccccc2)CC1	> 50 µM (inactive)
COc1ccc(OC)c(NC(=O)Cn2c(=O)n(CC3CCC(C(=O)NCCc4ccccc4)CC3)c(=O)c3ccccc32)c1 (stereo not given)	31.3 µM
CCc1cc2c(=O)[nH]c(Cc3ccc(OC)cc3)nc2s1	33.4 µM
COc1ccc(CCNC(=O)c2cc3ccccc3s2)cc1OC	> 50 µM (inactive)
Cc1ccc(Nc2nc(NCCc3ccccc3)nc3c2cnn3C)cc1	> 50 µM (inactive)
O=C(Cn1cncc(C(=O)NC2CCCC2)c1=O)Nc1cccc(F)c1	38.7 µM
CCn1cnc2c(-c3ccccc3)cn(CC(=O)NCc3ccc4c(c3)OCO4)c2c1=O	> 50 µM (inactive)
COc1ccc(CCNC(=O)CCCCn2c(=O)c3ccccc3n(Cc3cccc(Cl)c3)c2=O)cc1OC	29.9 µM
Cc1cc(C(=O)N2CCOCC2)c(C)n1-c1ccc(O)cc1	> 50 µM (inactive)
CC(=O)c1cccc(NC(=O)c2ccc(N3CCCCC3)nn2)c1	> 50 µM (inactive)
O=C(CSc1ncnc2c1sc1cccc(F)c12)N1CCCCCC1	> 50 µM (inactive)
COc1ccc(NC(=O)c2sc(N3CCOCC3)nc2-c2ccccc2)c(OC)c1	43.5 µM
O=c1ccc(-c2noc(-c3ccc4cc[nH]c4c3)n2)c[nH]1	> 50 µM (inactive)
COc1ccc(-c2cc3c(=O)n(CC(=O)NCCCN4CCCC4)ncn3n2)cc1	> 50 µM (inactive)
O=C(Nc1ccc2c(c1)OCO2)c1[nH]nc2c1CCc1ccccc1-2	> 50 µM (inactive)
Cc1ccc(CN2CCCn3nc(C(=O)NCc4ccc(F)cc4)cc3C2=O)cc1	> 50 µM (inactive)
CCCCNC(=O)C1Sc2nnc(-c3ccccc3)n2NC1c1ccccc1 (stereo not given)	17.9 µM
Cc1ccc(Cn2c(=O)c3ccccc3n3c(CCC(=O)N4CCN(c5ccccn5)CC4)nnc23)cc1	9.18 µM
O=C(NC1CCS(=O)(=O)C1)c1ccc(N2CCC(Cc3ccccc3)CC2)nn1 (stereo not given)	> 50 µM (inactive)
O=c1ccc(-c2noc(Cc3cccc(Cl)c3)n2)c[nH]1	> 50 µM (inactive)

Structure (SMILES)	IC50
Cc1ccc2c(C)nc(Nc3ncc4c(n3)CC(c3ccco3)CC4=O)nc2c1 (stereo not given)	0.168 µM
Cc1ccc(C(=O)NCc2ccc(C(=O)Nc3ccc(C)c(C)c3)o2)cc1	> 50 µM (inactive)
COc1cc2c(cc1OC)C(COc1ccccc1OC)N(C(=O)c1ccc3ccccc3c1)CC2 (stereo not given)	> 50 µM (inactive)
CCc1cc2cc3c(cc2nc1SCC(=O)Nc1cccc(C(C)=O)c1)OCO3	26.5 µM
Cc1sc(NC(=O)/C=C/c2ccco2)nc1-c1ccccc1	> 50 µM (inactive)
COc1cccc2c1C(=O)c1ccc3c(c1C2=O)C(=O)CC(C)(O)C3 (stereo not given)	> 50 µM (inactive)
O=C(Cn1c(=O)n(Cc2ccco2)c(=O)c2ccc(C(=O)NC3CCCC3)cc21)NCc1ccco1	> 50 µM (inactive)
O=C(Nc1cccc(-c2nc3ccccc3[nH]2)c1)c1cc2ccccc2oc1=O	22 µM
CN1CCN(C(=O)c2cc(-c3ccn(-c4ccccc4)n3)n3ccccc23)CC1	> 50 µM (inactive)
CSc1nc2ncn(CC(=O)Nc3cccc(Cl)c3)c(=O)c2s1	> 50 µM (inactive)
CN(C(=O)c1ccncc1)[C@H]1CC[C@@]2(C)C[C@H](c3ccccc3)C[C@](C)(O2)[C@@H]1O	> 50 µM (inactive)
NC(=O)c1ccc(NC(=O)Cc2cc(-c3ccc(Cl)cc3)on2)cc1	> 50 µM (inactive)
Cc1ccc(C(=O)NCCc2nc(-c3ccc4c(c3)OCO4)n[nH]2)cc1F	> 50 µM (inactive)
COc1ccc(-n2c(=O)c(CCC(=O)O)nc3ccccc32)cc1	> 50 µM (inactive)
COc1ccc(C(=O)NCC(c2ccc3c(c2)CCCN3C)N2CCCC2)cc1 (stereo not given)	> 50 µM (inactive)
Cc1cc(N2CCC(NC(=O)NCc3ccc(F)cc3)C2=O)ccc1F (stereo not given)	30.4 µM
O=C(NC(Cc1ccccc1)c1nc2ccccc2[nH]1)C1CC1 (stereo not given)	> 50 µM (inactive)
COc1ccc(-c2cnnn2-c2ccc(NC(=O)c3c(F)cccc3F)cc2)cc1OC	> 50 µM (inactive)
O=C1C=CC(O)C2C1CC13SSC4(CC5C(=O)C=CC(O)C5N4C1=O)C(=O)N23 (stereo not given)	> 50 µM (inactive)
Cc1ccc(Nc2nc(Nc3cccc(Cl)c3)nc3nccnc23)cc1	> 50 µM (inactive)
O=C(COC(=O)c1ccc(NS(=O)(=O)c2ccc3c(c2)OCCO3)cc1)NCc1ccc(Cl)cc1	> 50 µM (inactive)
Cc1cc(C(=O)Nc2ccc3c(c2)OCCO3)no1	> 50 µM (inactive)
O=C(CCc1c[nH]c2ccccc12)Nc1ccc(N2CCOCC2)cc1	30.9 µM
FC(F)(F)c1cccc(CSc2ccc3nnc(-c4ccccn4)n3n2)c1	> 50 µM (inactive)

Structure (SMILES)	IC50
Cn1ccc2c(cc(C(=O)NCCC3=CCCCC3)n2C)c1=O	> 50 µM (inactive)
CSc1ncc(C(=O)NC(C)c2ccccc2)c(-c2ccccc2)n1 (stereo not given)	22.1 µM
Cc1cnc2nc3c(cc2c1)CN(CCc1ccc(Cl)cc1)CC3	> 50 µM (inactive)
O=C(CCCn1c(=O)[nH]c2cc(Cl)ccc2c1=O)N1CCc2ccccc2C1	29 µM
CCOc1ccc(CCNC(=O)c2ccc3c(c2)N(CC)C(=O)c2ccccc2S3)cc1OCC	> 50 µM (inactive)
CCN1C(=O)c2cccnc2Sc2cc(NC(=O)c3ccc(Cl)s3)ccc21	> 50 µM (inactive)
Cc1nc(SCC(=O)Nc2cc(Cl)ccc2C)c2oc3ccccc3c2n1	> 50 µM (inactive)
Nc1ncnc(SCc2ccc(Cl)cc2)n1	29.3 µM
O=c1c(NCCCN2CCCC2)nc2ccncc2n1Cc1ccccc1	> 50 µM (inactive)
Cc1ccc(S(=O)(=O)N2CCC3(CC2)NC(=O)c2ccccc2N3)cc1C	> 50 µM (inactive)
CC(C)(C)C(=O)Nc1ccc(C(=O)Nc2cccc(-c3nnc(-c4ccccc4)o3)c2)cc1	16.8 µM
Cn1cc(CCNC(=O)c2cc3ccccc3[nH]2)c2cccnc21	> 50 µM (inactive)
CN(C)CCc1cc2c(c3c1ccc1ccccc13)OCO2	> 50 µM (inactive)
COCCCn1c(C(=O)NCCc2ccccc2)cc2c(=O)n3cccc(C)c3nc21	> 50 µM (inactive)
CCOc1ccc(NC(=O)Cn2c(=O)n(CCC(=O)NCc3ccco3)c(=O)c3ccccc32)cc1	11.6 µM
O=S1(=O)CCN(Cc2cccnc2)c2c(F)nc(N3CCOCC3)c(F)c21	> 50 µM (inactive)
Cc1cc(=O)n2c3c(c4c(cc13)c(CO)cc(=O)n4C)OC2	> 50 µM (inactive)
COc1ccc(NC(=O)c2cc(-c3cccnc3)n[nH]2)cc1Cl	17.8 µM
COc1ccc(Nc2nc(C(=O)NCc3ccccc3)cc3occc23)cc1	> 50 µM (inactive)
O=C(NCc1cccnc1)c1cnn2c(C(F)(F)F)cc(-c3ccccc3)nc12	> 50 µM (inactive)
O=C(Nc1ccc2sccc2c1)c1ccc(F)cc1	> 50 µM (inactive)
COc1cnc(-c2ccccn2)nc1Sc1ccc(C)cc1	> 50 µM (inactive)
CCC1(C)Cc2c(sc3nc(SCC(=O)Nc4ccc(C(C)=O)cc4)nc(N)c23)CO1 (stereo not given)	32.4 µM

From PubChem BioAssay AID1645868 (Buhrlage Lab, Dana-Farber Cancer Institute and Novartis …, 2021)
